Each structure is given as a SMILES string. Read-outs that look alike come from different tables or passages of the source.

One assay concerns Zymoseptoria tritici. As to the kind of experiment: Leaf Blotch of Wheat (SEPTTR) fungicidal activity. The conditions noted are these: wheat leaf blotch; for pest or weed control at 100 ppm: High Volume application; for pest or weed control at 121.5 g/ha: Low Volume application, 121.5 g/H. In kind it is in vivo. A digest of the protocol: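 Wheat seedlings (Yuma, first leaf emerged) were sprayed to run-off with compound in acetone/water containing Triton X-100 and inoculated with Z. tritici spores before or after treatment. Percent disease control comes from 0–100% severity on treated versus untreated plants.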

In the next assay the test system is Puccinia triticina. As to the kind of experiment: Wheat Brown Rust (PUCCRT) fungicidal activity. It is filed as in vivo. The conditions noted are these: for pest or weed control at 100 ppm: High Volume application; for pest or weed control at 121.5 g/ha: Low Volume application, 121.5 g/H. A digest of the protocol:
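Yuma wheat seedlings at first-leaf stage sprayed to run-off with acetone/water (Triton X-100) solutions, inoculated with P. triticina spores before or after treatment. Overnight dark dew at 22° C, then greenhouse at 24° C; percent disease control from severity versus untreated plants.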

[1] abbreviates: 24 h, 1 day protectant, read-out: SEPTTR disease control, 1DP (1 Day Protectant).
[2] abbreviates: 72 h, 3 day curative, read-out: SEPTTR disease control, 3DC (3 Day Curative).
Setting [3] is: 24 h, 1 day protectant, read-out: PUCCRT disease control, 1DP (1 Day Protectant).
Setting [4] is: 72 h, 3 day curative, read-out: PUCCRT disease control, 3DC (3 Day Curative).

With `COc1ccnc(C(=O)N[C@H]2CCCC[C@@H]3OC(C)(C)O[C@H]3[C@H](C)OC2=O)c1O` [Compound 104], the pest or weed control at 100 ppm was less than 80% in the assay on Zymoseptoria tritici (setting [1]), less than 80% in the assay on Zymoseptoria tritici (setting [2]), greater than 80% in the assay on Puccinia triticina (setting [3]) and greater than 80% in the assay with Puccinia triticina (setting [4]).

Regarding `COc1ccnc(C(=O)N[C@H]2CCCC[C@H](OC)[C@@H](OCC(C)C)[C@H](C)OC2=O)c1OC(C)=O` [Compound 28], the pest or weed control at 121.5 g/ha is less than 80% in the assay with Zymoseptoria tritici (setting [1]), greater than 80% with Zymoseptoria tritici (setting [2]), greater than 80% with Puccinia triticina (setting [3]) and greater than 80% in the assay with Puccinia triticina (setting [4]).

On to `CCCO[C@H]1CCCC[C@H](NC(=O)c2nccc(OC)c2OC(C)=O)C(=O)O[C@@H](C)[C@@H]1Oc1ccccc1` [Compound 26], for which the pest or weed control at 121.5 g/ha in the assay with Zymoseptoria tritici (setting [1]), in the assay on Zymoseptoria tritici (setting [2]), in the assay on Puccinia triticina (setting [3]) and in the assay on Puccinia triticina (setting [4]) was greater than 80% each time.

On to `COc1ccnc(C(=O)N[C@H]2CCOC[C@H](OCC(C)C)[C@@H](Oc3ccccc3)[C@H](C)OC2=O)c1O` [Compound 118], for which the pest or weed control at 100 ppm is greater than 80% in the assay on Zymoseptoria tritici (setting [1]), greater than 80% in the assay on Puccinia triticina (setting [3]) and less than 80% with Puccinia triticina (setting [4]).

For the molecule `COc1ccnc(C(=O)N[C@H]2COCC[C@H](Cc3ccc(F)cc3)[C@@H](OCC3CC3)[C@H](C)OC2=O)c1OCOC(C)=O` [Compound 74], the pest or weed control at 121.5 g/ha was greater than 80% in the assay with Zymoseptoria tritici (setting [1]), less than 80% in the assay on Zymoseptoria tritici (setting [2]), greater than 80% in the assay with Puccinia triticina (setting [3]) and greater than 80% in the assay on Puccinia triticina (setting [4]).

With `COc1ccnc(C(=O)N[C@H]2CCCC[C@H](OCC(C)C)[C@@H](Oc3ccccc3)[C@H](C)OC2=O)c1OCOC(C)=O` [Compound 13], the pest or weed control at 100 ppm in the assay with Zymoseptoria tritici (setting [1]), in the assay with Zymoseptoria tritici (setting [2]), in the assay with Puccinia triticina (setting [3]) and with Puccinia triticina (setting [4]) was greater than 80% throughout. In addition, the pest or weed control at 121.5 g/ha in the assay with Zymoseptoria tritici (setting [1]), in the assay with Zymoseptoria tritici (setting [2]), in the assay on Puccinia triticina (setting [3]) and in the assay on Puccinia triticina (setting [4]) was greater than 80% each time.

Consider `COc1ccnc(C(=O)N[C@H]2COCC[C@H](OCC(C)C)[C@@H](OCC(C)C)[C@H](C)OC2=O)c1O` [Compound 86], for which the pest or weed control at 100 ppm is less than 80% in the assay on Zymoseptoria tritici (setting [1]), greater than 80% in the assay with Zymoseptoria tritici (setting [2]), greater than 80% with Puccinia triticina (setting [3]) and less than 80% in the assay on Puccinia triticina (setting [4]).

As for `CC[C@H]1CCOC[C@H](NC(=O)c2nccc(OC)c2O)C(=O)O[C@@H](C)[C@@H]1OC(=O)c1ccccc1` [Compound 135], the pest or weed control at 100 ppm in the assay with Zymoseptoria tritici (setting [1]), with Zymoseptoria tritici (setting [2]), in the assay on Puccinia triticina (setting [3]) and with Puccinia triticina (setting [4]) was greater than 80% each time.

Consider `CCCO[C@H]1COCC[C@H](NC(=O)c2nccc(OC)c2OCOC(C)=O)C(=O)O[C@@H](C)[C@@H]1Oc1ccccc1` [Compound 41], for which the pest or weed control at 121.5 g/ha in the assay on Zymoseptoria tritici (setting [1]), in the assay on Zymoseptoria tritici (setting [2]), with Puccinia triticina (setting [3]) and in the assay on Puccinia triticina (setting [4]) was greater than 80% each time.

For the molecule `COc1ccnc(C(=O)N[C@H]2CCCC[C@H](Oc3ccccc3)[C@@H](OC3CCCC3)[C@H](C)OC2=O)c1OCOC(C)=O` [Compound 36], the pest or weed control at 121.5 g/ha in the assay on Zymoseptoria tritici (setting [1]) was less than 80%; in the assay with Zymoseptoria tritici (setting [2]) it was less than 80%; in the assay with Puccinia triticina (setting [3]), greater than 80%; in the assay on Puccinia triticina (setting [4]) it was greater than 80%.

As for `CCCOC(=O)O[C@H]1CCCC[C@H](NC(=O)c2nccc(OC)c2OCOC(C)=O)C(=O)O[C@@H](C)[C@@H]1OCC(C)C` [Compound 38], the pest or weed control at 121.5 g/ha in the assay on Zymoseptoria tritici (setting [1]) is greater than 80%; in the assay on Zymoseptoria tritici (setting [2]) it was greater than 80%; in the assay on Puccinia triticina (setting [3]), greater than 80%; in the assay with Puccinia triticina (setting [4]), less than 80%.

Consider `COc1ccnc(C(=O)N[C@H]2CCCC[C@H](OC)[C@@H](Oc3ccccc3)[C@H](C)OC2=O)c1OCOC(C)=O` [Compound 11], for which the pest or weed control at 100 ppm with Zymoseptoria tritici (setting [1]), in the assay with Zymoseptoria tritici (setting [2]), with Puccinia triticina (setting [3]) and in the assay on Puccinia triticina (setting [4]) was greater than 80% throughout. Besides, the pest or weed control at 121.5 g/ha in the assay with Zymoseptoria tritici (setting [1]), in the assay with Zymoseptoria tritici (setting [2]), in the assay with Puccinia triticina (setting [3]) and with Puccinia triticina (setting [4]) was greater than 80% in each case.

With `COc1ccnc(C(=O)N[C@H]2CCOC[C@H](OCC(C)C)[C@@H](Oc3ccccc3)[C@H](C)OC2=O)c1OCOC(C)=O` [Compound 45], the pest or weed control at 121.5 g/ha in the assay with Zymoseptoria tritici (setting [1]), in the assay with Zymoseptoria tritici (setting [2]), in the assay with Puccinia triticina (setting [3]) and in the assay with Puccinia triticina (setting [4]) was greater than 80% throughout.

`CC[C@H]1CCOC[C@H](NC(=O)c2nccc(OC)c2O)C(=O)O[C@@H](C)[C@@H]1OCC(C)C` [Compound 131]: the pest or weed control at 100 ppm in the assay on Zymoseptoria tritici (setting [2]) was less than 80%; in the assay on Puccinia triticina (setting [3]), greater than 80%; in the assay on Puccinia triticina (setting [4]), greater than 80%.

For `CCOCC(=O)OCOc1c(OC)ccnc1C(=O)N[C@H]1COCC[C@H](Cc2ccc(F)cc2)[C@@H](OCC2CC2)[C@H](C)OC1=O` [Compound 78], the pest or weed control at 121.5 g/ha is greater than 80% in the assay on Zymoseptoria tritici (setting [1]), less than 80% in the assay on Zymoseptoria tritici (setting [2]), greater than 80% in the assay with Puccinia triticina (setting [3]) and greater than 80% in the assay on Puccinia triticina (setting [4]).

In the case of `COc1ccc(C[C@H]2CCOC[C@H](NC(=O)c3nccc(OC)c3OCOC(=O)C(C)C)C(=O)O[C@@H](C)[C@@H]2Oc2ccccc2)cc1` [Compound 67, ((4-methoxy-2-(((3S,8S,9R,10S)-8-(4-methoxybenzyl)-10-methyl-2-oxo-9-phenoxy-1,5-dioxecan-3-yl)carbamoyl)pyridin-3-yl)oxy)methyl isobutyrate], the pest or weed control at 121.5 g/ha in the assay with Zymoseptoria tritici (setting [1]) was greater than 80%; with Zymoseptoria tritici (setting [2]) it was less than 80%; with Puccinia triticina (setting [3]) it was greater than 80%; in the assay with Puccinia triticina (setting [4]), less than 80%.

With `CCCCO[C@H]1CCOC[C@H](NC(=O)c2nccc(OC)c2O)C(=O)O[C@@H](C)[C@@H]1OC(=O)C1CC1` [Compound 85], the pest or weed control at 100 ppm is less than 80% in the assay on Zymoseptoria tritici (setting [1]), greater than 80% with Zymoseptoria tritici (setting [2]), greater than 80% in the assay on Puccinia triticina (setting [3]) and greater than 80% in the assay on Puccinia triticina (setting [4]).

Turning to `COc1ccnc(C(=O)N[C@H]2CCOC[C@H](Cc3ccccc3)[C@@H](OCC(C)C)[C@H](C)OC2=O)c1OCOC(C)=O` [Compound 16], the pest or weed control at 100 ppm in the assay with Zymoseptoria tritici (setting [1]) is greater than 80%; in the assay with Zymoseptoria tritici (setting [2]) it was less than 80%; in the assay with Puccinia triticina (setting [3]), greater than 80%; in the assay on Puccinia triticina (setting [4]), greater than 80%. Also, the pest or weed control at 121.5 g/ha was less than 80% with Zymoseptoria tritici (setting [1]), less than 80% in the assay on Zymoseptoria tritici (setting [2]), greater than 80% with Puccinia triticina (setting [3]) and less than 80% in the assay with Puccinia triticina (setting [4]).

For the molecule `CCOCC(=O)OCOc1c(OC)ccnc1C(=O)N[C@H]1CCCC[C@H](CC2CCCC2)[C@@H](Oc2ccccc2)[C@H](C)OC1=O` [Compound 51, ((2-(((3S,8R,9R,10S)-8-(cyclopentylmethyl)-10-methyl-2-oxo-9-phenoxyoxecan-3-yl)carbamoyl)-4-methoxypyridin-3-yl)oxy)methyl 2-ethoxyacetate], the pest or weed control at 121.5 g/ha was greater than 80% in the assay with Zymoseptoria tritici (setting [1]), greater than 80% in the assay with Puccinia triticina (setting [3]) and less than 80% with Puccinia triticina (setting [4]).

Turning to `CCCCO[C@H]1CCOC[C@H](NC(=O)c2nccc(OC)c2O)C(=O)O[C@@H](C)[C@@H]1OC(=O)c1ccccc1` [Compound 84], the pest or weed control at 100 ppm with Zymoseptoria tritici (setting [1]) was less than 80%; in the assay on Zymoseptoria tritici (setting [2]), greater than 80%; in the assay on Puccinia triticina (setting [3]), greater than 80%; in the assay on Puccinia triticina (setting [4]) it was greater than 80%.

Take `COc1ccnc(C(=O)N[C@H]2CCCC[C@H](OC)[C@@H](OCC(C)C)[C@H](C)OC2=O)c1OCOC(C)=O` [Compound 12]: the pest or weed control at 100 ppm in the assay with Zymoseptoria tritici (setting [1]), in the assay on Zymoseptoria tritici (setting [2]), in the assay on Puccinia triticina (setting [3]) and in the assay on Puccinia triticina (setting [4]) was greater than 80% in each case.

`COc1ccnc(C(=O)N[C@H]2CCCC[C@H](CC3CCCC3)[C@@H](OC)[C@H](C)OC2=O)c1OCOC(C)=O` [Compound 61]: the pest or weed control at 121.5 g/ha with Zymoseptoria tritici (setting [1]) was less than 80%; with Zymoseptoria tritici (setting [2]), less than 80%; with Puccinia triticina (setting [3]), greater than 80%; in the assay with Puccinia triticina (setting [4]), greater than 80%.

Take `COc1ccnc(C(=O)N[C@H]2CCOC[C@H](OC)[C@@H](Oc3ccccc3)[C@H](C)OC2=O)c1OCOC(C)=O` [Compound 40]: the pest or weed control at 121.5 g/ha with Zymoseptoria tritici (setting [1]), in the assay with Zymoseptoria tritici (setting [2]), in the assay on Puccinia triticina (setting [3]) and in the assay with Puccinia triticina (setting [4]) was greater than 80% each time.

On to `COc1ccnc(C(=O)N[C@H]2CCCC[C@H](Cc3ccccc3)[C@@H](OC(=O)C(C)C)[C@H](C)OC2=O)c1O` [Compound 127], for which the pest or weed control at 100 ppm with Zymoseptoria tritici (setting [1]) was greater than 80%; in the assay with Zymoseptoria tritici (setting [2]), less than 80%; in the assay on Puccinia triticina (setting [3]), greater than 80%; with Puccinia triticina (setting [4]), greater than 80%.

The record behind these values is patent US20180002319A1, “MACROCYCLIC PICOLINAMIDE COMPOUNDS WITH FUNGICIDAL ACTIVITY” (DOW AGROSCIENCES LLC, priority 2014, published 2018).
